Format in all cases: cell-based
The target of one assay is T1, mPiezo2 (Mus musculus, UniProt Q8CD54).
T1 construct: gene Piezo2; cDNA transiently transfected in HEK293T cells
Put plainly: whole-cell patch clamp of mechanically activated currents, transfected HEK293T. The settings on record: 10 μM Yoda1, up to 5 min, -80 mV; selectivity control.

In another assay the target is T2, hPiezo1 (Homo sapiens, UniProt Q92508).
T2 construct: gene PIEZO1; cDNA transiently transfected in HEK293T cells
Put plainly: FLIPR calcium influx (Fluo3), transfected HEK293T, 384-well. The settings on record: agonist; pH 7.4, HBSS with 1.26 mM CaCl2; unreliable (compound insolubility above ~20 μM).

In another assay the target is T3, mPiezo1 (Mus musculus, UniProt E2JF22).
T3 construct: gene Piezo1; full-length cDNA transiently transfected in HEK293T (mPiezo1-IRES GFP for imaging and patch clamp); for bilayers purified protein as in Coste et al. 2012
T3 sequence (E2JF22 whole entry): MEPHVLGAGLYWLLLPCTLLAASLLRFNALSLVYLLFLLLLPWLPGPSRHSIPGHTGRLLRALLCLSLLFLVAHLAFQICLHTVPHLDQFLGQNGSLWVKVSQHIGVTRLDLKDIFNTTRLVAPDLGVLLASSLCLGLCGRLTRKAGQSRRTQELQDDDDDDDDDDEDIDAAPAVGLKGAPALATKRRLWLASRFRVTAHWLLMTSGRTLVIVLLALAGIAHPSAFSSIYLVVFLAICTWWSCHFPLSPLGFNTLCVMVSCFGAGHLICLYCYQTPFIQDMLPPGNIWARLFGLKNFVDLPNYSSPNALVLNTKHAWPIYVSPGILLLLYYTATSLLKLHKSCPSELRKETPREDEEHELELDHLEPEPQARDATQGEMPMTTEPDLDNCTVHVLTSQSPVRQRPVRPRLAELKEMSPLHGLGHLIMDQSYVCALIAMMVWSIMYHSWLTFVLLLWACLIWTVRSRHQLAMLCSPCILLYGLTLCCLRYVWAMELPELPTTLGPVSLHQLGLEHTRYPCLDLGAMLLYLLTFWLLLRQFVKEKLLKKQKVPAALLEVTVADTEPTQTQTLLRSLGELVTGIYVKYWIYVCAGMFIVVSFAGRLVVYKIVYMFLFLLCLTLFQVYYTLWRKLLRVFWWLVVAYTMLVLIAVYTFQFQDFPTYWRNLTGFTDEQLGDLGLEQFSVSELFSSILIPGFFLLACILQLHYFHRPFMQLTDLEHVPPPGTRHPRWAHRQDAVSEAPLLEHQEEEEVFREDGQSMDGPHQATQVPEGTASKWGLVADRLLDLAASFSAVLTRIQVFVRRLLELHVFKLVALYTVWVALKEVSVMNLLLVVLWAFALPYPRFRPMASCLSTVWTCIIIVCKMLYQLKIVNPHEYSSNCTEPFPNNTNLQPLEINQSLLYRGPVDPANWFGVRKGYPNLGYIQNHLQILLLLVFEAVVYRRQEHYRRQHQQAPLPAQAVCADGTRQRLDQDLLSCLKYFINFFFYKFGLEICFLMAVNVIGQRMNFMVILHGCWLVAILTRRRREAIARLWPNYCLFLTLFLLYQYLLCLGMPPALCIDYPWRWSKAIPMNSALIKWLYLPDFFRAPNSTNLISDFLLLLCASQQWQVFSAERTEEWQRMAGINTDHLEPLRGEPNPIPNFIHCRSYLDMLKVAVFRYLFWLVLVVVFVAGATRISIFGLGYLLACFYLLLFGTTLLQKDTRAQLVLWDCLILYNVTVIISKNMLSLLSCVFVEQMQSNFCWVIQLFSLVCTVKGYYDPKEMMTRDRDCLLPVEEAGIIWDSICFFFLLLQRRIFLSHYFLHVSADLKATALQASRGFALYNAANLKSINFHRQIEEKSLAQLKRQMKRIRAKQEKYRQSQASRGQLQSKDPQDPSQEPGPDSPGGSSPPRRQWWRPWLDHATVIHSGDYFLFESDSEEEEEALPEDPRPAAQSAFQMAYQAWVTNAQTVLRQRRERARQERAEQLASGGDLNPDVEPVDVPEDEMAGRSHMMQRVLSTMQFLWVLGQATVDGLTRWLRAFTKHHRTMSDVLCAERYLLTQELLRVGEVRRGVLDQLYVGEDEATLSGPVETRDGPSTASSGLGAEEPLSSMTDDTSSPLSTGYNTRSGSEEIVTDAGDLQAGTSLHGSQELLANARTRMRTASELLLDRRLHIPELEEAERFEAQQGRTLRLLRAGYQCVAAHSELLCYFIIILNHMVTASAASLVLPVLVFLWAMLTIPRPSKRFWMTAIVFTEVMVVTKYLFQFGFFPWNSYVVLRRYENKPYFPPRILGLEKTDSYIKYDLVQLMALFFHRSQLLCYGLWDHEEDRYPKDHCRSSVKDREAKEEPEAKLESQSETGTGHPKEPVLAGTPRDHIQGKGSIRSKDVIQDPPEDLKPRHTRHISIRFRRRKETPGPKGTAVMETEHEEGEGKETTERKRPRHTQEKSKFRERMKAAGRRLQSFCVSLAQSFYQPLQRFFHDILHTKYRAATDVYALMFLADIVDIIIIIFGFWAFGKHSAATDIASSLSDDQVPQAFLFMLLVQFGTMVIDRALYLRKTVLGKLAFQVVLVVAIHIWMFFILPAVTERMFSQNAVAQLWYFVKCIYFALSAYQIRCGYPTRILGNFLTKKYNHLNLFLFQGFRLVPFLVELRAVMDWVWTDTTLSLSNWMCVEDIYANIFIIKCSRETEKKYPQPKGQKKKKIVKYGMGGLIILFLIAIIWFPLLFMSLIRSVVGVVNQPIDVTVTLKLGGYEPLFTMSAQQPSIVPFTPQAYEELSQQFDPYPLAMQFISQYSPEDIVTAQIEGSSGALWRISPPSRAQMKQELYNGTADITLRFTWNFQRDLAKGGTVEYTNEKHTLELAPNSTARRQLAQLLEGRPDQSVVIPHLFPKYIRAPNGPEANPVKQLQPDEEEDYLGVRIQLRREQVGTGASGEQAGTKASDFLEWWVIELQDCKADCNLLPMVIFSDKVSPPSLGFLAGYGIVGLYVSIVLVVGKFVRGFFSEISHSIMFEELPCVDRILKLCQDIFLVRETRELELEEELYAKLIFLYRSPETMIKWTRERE
Described as above. The settings on record: agonist; pH 7.4, HBSS with 1.26 mM CaCl2; unreliable (compound insolubility above ~20 μM).

Here are results for one molecule from paper PMC4456433, “Chemical activation of the mechanotransduction channel Piezo1” (eLife, 2015).

Each structure is given as a SMILES string.

T2 sequence (Q92508 whole entry): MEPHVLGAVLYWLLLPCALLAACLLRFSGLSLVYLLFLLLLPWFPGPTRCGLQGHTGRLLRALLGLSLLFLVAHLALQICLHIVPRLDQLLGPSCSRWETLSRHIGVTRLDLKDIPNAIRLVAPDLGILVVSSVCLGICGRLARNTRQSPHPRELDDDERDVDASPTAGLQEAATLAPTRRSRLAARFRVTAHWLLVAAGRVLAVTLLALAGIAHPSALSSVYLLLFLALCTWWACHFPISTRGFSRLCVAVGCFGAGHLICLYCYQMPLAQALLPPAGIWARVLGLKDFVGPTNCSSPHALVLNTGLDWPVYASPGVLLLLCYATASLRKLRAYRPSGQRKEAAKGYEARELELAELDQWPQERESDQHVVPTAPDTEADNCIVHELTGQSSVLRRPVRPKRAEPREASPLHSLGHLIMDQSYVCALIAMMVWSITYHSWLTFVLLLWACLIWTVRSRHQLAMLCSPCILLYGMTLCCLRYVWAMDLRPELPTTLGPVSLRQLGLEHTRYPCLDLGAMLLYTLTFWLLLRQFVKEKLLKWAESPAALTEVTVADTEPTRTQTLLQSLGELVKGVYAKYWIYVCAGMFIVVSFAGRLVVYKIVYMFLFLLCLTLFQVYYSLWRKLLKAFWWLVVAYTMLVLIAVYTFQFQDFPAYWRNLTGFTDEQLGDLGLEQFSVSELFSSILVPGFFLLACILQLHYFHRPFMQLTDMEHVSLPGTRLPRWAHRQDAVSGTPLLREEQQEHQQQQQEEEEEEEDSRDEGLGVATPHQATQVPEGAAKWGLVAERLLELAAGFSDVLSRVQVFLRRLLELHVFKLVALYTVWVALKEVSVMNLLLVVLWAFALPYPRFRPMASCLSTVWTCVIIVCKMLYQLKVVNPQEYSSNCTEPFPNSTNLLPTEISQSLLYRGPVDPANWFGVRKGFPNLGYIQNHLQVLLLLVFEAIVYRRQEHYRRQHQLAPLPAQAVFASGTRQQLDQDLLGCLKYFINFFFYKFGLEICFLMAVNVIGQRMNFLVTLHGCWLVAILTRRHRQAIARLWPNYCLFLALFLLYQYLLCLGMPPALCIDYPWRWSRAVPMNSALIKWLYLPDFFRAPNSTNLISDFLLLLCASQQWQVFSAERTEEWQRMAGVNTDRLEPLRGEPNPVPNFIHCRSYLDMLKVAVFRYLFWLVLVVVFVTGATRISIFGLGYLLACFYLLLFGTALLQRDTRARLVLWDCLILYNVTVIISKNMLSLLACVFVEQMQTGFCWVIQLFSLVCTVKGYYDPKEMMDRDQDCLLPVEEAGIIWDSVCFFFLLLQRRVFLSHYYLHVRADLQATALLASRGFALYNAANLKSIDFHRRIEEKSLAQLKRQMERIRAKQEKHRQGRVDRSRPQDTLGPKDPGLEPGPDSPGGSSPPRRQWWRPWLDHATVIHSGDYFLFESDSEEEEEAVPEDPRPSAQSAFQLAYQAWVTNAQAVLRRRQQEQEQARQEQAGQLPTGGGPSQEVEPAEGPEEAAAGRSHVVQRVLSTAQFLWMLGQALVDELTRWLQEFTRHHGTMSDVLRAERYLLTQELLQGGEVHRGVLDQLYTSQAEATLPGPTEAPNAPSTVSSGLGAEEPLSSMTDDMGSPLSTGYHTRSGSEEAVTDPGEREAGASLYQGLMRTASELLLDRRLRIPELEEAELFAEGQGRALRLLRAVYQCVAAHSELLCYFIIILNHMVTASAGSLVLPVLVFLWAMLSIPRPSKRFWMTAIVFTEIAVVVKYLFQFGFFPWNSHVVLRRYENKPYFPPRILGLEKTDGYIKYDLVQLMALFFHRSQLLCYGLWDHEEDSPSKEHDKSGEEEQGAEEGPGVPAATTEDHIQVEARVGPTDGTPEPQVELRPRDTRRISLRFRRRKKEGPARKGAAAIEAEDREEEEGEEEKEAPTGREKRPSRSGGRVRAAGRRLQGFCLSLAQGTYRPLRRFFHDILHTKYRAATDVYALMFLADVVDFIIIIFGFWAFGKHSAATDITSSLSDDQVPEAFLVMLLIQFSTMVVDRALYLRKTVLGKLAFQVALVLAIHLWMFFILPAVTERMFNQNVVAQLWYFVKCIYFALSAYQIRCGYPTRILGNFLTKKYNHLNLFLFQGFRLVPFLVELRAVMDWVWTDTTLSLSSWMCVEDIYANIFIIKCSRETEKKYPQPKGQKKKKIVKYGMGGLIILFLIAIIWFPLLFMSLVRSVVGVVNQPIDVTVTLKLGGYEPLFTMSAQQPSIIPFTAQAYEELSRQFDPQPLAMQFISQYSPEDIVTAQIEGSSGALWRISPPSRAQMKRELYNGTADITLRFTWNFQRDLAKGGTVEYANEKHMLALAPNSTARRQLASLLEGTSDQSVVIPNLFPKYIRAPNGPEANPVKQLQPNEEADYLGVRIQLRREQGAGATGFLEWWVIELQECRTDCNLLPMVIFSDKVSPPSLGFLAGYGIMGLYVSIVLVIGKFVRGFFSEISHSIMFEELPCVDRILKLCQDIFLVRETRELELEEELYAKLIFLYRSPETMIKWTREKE

On to `Clc1cccc(Cl)c1CSc1nnc(-c2cnccn2)s1` [Yoda1], for which the “whole-cell patch clamp of mechanically activated currents, transfected HEK293T” value at mPiezo2 is recorded as “No effect was observed upon Yoda1 exposure”. In addition, the “apparent EC50” value at hPiezo1 is given as 26.6 (95% CI 20.6 to 34.4) μM; on mPiezo1, 17.1 (95% CI 13.4 to 21.9) μM.
